Where two headings read alike, the source gives them in different places. Marks after values point to notes of the source that are not given here. One block for each compound: values may come before it.
Experiments:
[1] = Dynamic moisture sorption test; assay type: physicochemical; conditions: 90% relative humidity, 25 °C
fasted rat = experiment: Acute refeeding assay; assay type: in vivo; conditions: for Inhibition of Food Intake at 1 h (%), 5 mg/kg dose: 5 mg/kg PO
P-gp = experiment: in vitro; assay type: in vitro ADME; conditions: pig, LLC-PK1
5-HT2CR = molecular target: T1, 5-HT2CR (Homo sapiens, UniProt P28335); assay type: binding
T1 sequence (P28335 33-458): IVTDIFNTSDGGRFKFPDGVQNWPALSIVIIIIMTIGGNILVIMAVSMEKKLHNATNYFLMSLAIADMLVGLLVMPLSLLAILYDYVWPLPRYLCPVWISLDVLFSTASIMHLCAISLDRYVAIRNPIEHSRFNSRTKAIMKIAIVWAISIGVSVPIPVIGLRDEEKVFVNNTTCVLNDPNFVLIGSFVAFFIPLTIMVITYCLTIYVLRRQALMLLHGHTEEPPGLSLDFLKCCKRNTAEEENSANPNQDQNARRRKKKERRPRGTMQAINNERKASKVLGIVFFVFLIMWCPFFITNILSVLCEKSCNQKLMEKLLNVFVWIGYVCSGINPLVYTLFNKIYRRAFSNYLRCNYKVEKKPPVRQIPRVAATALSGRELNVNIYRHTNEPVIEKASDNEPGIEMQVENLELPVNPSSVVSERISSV

[2] = test system: Eurofins safety screen panel; conditions: at 10 μM
CYP2D6 = CYP2D6 (Homo sapiens, UniProt P10635)
CYP2C19 = CYP2C19 (Homo sapiens, UniProt P33261)
CYP1A2 = molecular target: T2, CYP1A2 (Homo sapiens, UniProt P05177)
T2 sequence (P05177 1-516): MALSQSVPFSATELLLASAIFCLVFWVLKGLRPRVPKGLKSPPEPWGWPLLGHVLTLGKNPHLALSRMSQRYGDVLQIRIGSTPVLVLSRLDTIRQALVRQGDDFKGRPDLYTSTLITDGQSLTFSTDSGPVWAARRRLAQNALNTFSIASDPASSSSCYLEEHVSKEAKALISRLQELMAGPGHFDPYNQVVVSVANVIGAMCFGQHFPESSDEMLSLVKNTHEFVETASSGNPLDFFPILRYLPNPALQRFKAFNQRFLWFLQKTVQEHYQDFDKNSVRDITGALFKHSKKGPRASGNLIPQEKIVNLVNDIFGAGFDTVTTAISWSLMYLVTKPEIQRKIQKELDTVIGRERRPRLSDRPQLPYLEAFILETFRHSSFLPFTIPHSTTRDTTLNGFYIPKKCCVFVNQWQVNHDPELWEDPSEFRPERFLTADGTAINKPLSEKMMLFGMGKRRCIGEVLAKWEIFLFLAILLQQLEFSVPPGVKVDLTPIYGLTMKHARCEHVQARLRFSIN

in vivo = conditions: cynomolgus monkey, iv, 2 mg/kg
major CYP enzymes = experiment: CYP time-dependent inhibition
CYP2C8 = molecular target: T3, CYP2C8 (Homo sapiens, UniProt P10632)
T3 sequence (P10632 1-490): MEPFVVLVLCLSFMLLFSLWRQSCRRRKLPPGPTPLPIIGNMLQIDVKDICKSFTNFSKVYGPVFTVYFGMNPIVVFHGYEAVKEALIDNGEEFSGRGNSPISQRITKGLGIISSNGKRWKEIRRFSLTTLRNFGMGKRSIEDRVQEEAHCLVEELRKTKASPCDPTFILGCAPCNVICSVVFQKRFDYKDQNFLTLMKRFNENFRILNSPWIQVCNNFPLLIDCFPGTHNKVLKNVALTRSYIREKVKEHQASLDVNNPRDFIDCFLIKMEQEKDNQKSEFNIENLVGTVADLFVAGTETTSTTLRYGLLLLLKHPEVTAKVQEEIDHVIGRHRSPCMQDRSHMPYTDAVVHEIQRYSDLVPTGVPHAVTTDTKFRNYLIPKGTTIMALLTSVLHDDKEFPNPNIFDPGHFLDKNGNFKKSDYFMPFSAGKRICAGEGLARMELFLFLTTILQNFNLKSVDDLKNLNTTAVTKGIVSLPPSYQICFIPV

[3] = predicted from PK data across species
CYP3A4 = CYP3A4 (Homo sapiens, UniProt P08684)
CYP2C9 = CYP2C9 (Homo sapiens, UniProt P11712)
CYP2B6 = molecular target: T4, CYP2B6 (Homo sapiens, UniProt P20813); experiment: CYP inhibition; assay type: in vitro ADME
T4 sequence (P20813 1-491): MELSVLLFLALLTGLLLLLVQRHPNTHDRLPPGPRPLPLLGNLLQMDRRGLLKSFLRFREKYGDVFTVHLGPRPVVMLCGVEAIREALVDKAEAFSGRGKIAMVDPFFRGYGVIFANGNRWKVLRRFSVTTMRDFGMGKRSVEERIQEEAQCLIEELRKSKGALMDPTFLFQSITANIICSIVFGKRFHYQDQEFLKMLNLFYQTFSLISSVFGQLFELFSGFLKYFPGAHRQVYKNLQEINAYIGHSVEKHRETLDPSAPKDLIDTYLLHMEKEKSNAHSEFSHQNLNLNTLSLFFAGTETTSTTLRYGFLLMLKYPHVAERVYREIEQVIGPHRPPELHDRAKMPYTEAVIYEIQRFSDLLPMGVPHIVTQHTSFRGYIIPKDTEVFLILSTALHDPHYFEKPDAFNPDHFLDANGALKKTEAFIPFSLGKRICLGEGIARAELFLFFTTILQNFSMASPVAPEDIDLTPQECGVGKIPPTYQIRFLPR

Chain of CYP3A4 (P08684 whole entry): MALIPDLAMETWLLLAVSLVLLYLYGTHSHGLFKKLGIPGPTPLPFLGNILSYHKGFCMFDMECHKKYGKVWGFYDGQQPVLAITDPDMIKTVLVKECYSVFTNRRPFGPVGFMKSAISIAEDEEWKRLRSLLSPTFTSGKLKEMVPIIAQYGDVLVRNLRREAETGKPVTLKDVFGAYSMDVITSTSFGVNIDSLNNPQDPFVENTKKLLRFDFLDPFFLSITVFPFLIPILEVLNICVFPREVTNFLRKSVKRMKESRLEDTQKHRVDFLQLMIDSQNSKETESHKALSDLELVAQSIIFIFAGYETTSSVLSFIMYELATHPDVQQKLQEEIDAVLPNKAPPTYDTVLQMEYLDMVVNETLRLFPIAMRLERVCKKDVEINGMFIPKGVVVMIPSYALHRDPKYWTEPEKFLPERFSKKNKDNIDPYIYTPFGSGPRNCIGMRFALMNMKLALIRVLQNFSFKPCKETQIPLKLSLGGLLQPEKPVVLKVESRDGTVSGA
Chain of CYP2C9 (P11712 whole entry): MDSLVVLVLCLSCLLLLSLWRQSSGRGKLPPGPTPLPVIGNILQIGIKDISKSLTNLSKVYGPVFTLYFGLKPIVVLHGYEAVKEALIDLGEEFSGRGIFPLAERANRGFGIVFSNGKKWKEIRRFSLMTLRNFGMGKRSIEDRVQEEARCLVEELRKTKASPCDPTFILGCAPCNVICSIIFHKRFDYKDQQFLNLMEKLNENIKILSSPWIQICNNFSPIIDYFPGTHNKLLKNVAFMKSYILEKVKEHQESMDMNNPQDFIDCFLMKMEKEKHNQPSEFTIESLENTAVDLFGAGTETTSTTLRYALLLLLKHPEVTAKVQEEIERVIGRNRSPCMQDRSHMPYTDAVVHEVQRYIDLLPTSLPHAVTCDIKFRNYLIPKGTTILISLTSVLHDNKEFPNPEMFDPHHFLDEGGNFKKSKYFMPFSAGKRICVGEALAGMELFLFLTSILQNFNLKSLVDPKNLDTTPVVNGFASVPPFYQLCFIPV
Chain of CYP2D6 (P10635 whole entry): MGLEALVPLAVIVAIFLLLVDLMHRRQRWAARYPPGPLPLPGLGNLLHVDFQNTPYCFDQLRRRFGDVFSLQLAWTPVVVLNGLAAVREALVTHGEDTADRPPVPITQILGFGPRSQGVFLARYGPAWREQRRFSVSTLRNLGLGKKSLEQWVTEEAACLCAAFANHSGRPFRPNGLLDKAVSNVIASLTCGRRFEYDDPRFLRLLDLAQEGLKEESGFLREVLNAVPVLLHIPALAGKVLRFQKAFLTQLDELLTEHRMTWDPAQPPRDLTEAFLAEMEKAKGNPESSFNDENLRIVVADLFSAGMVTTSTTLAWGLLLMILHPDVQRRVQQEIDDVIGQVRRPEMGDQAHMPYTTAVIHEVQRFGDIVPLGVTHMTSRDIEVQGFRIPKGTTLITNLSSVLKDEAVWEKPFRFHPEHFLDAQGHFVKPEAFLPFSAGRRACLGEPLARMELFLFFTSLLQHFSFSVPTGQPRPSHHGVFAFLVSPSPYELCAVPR
Chain of CYP2C19 (P33261 whole entry): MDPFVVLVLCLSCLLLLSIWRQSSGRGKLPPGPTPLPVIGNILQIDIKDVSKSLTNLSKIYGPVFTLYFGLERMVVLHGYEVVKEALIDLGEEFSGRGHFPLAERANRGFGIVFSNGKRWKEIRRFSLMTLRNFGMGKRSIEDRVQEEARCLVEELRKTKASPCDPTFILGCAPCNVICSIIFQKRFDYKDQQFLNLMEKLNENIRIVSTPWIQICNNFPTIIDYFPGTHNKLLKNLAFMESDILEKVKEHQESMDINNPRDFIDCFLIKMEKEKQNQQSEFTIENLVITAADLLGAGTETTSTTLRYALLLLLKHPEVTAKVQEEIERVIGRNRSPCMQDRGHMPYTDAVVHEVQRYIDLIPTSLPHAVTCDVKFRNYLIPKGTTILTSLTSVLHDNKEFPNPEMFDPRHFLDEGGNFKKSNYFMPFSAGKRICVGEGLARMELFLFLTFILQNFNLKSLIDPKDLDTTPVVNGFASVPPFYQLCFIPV

Compound: C[C@H]1CN2CCNCc3ccc(C(=O)NCC(F)F)c1c32.Cl [(+)-19m. HCl]
- Weight gain in dynamic moisture sorption test [1]: < 0.1%

Compound: O=C(NCCOc1ccccc1)c1ccc2c3c1CCN3CCNC2 [7p, N-(2-Phenoxyethyl)-1,2,3,4,6,7-hexahydro-[1,4]diazepino[6,7,1-hi]indole-8-carboxamide]
- Selectivity for 5-HT2CR over 5-HT2AR and 5-HT2BR in binding assays (5-HT2CR; 125I-DOI binding assay): ~100 fold

Compound: C[C@H]1CN2CCNCc3ccc(C(=O)NCC(F)F)c1c32 [(+)-19m, (+)-N-(2,2-Difluoroethyl)-7-methyl-1,2,3,4,6,7-hexahydro-[1,4]diazepino[6,7,1-hi]indole-8-carboxamide]
- Binding against >140 target Eurofins safety screen panel [2]: < 25%
- IC50 (CYP2D6): > 30 µM
- IC50 (CYP2C19): > 30 µM
- Inhibition of Food Intake at 1 h (%), 5 mg/kg dose (fasted rat): 81 ^d %
- IC50 (CYP1A2): > 30 µM
- CL renal (in vivo): 1.8 mL/h/kg
- CYP time-dependent inhibition (major CYP enzymes): no time-dependent inhibition
- IC50 (CYP2C8): > 30 µM
- Papp A→B (P-gp): 8.9 ×10⁻⁶ cm/s
- Rat brain protein-binding: 53%
- Predicted half-life in human by allometric scaling [3]: approximately 7 h
- IC50 (CYP3A4): > 30 µM
- IC50 (CYP2C9): > 30 µM
- IC50 (CYP2B6): > 30 µM

Compound: CNC(=O)c1ccc2c3c1CCN3CCNC2 [7b, N-Methyl-1,2,3,4,6,7-hexahydro-[1,4]diazepino[6,7,1-hi]indole-8-carboxamide]
- Hypophagic effect after preadministration of 5-HT2CR antagonist SB242084 (fasted rat; 10 mg/kg po, 1 h, SB242084 1 mg/kg PO): blocked
- Predicted half-life in human by allometric scaling [3]: 3 h

Compound: CCCNC(=O)c1ccc2c3c1C(CC(F)(F)F)CN3CCNC2 (single isomer, unassigned; (+)) [(+)-19c]
- Inhibition of Food Intake at 1 h (%) with 10 mg/kg po (fasted rat; 10 mg/kg PO): 53 ^c %

Continued, in another order:

- Papp A→B (P-gp): 12.8 ×10⁻⁶ cm/s
- efflux ratio (P-gp): 2.16
Compound: CCC1CN2CCNCc3ccc(C(=O)NCC(F)F)c1c32 (single isomer, unassigned; (+)) [(+)-19k, (+)-N-(2,2-Difluoroethyl)-7-ethyl-1,2,3,4,6,7-hexahydro-[1,4]diazepino[6,7,1-hi]indole-8-carboxamide]
- Inhibition of Food Intake at 1 h (%), 5 mg/kg dose (fasted rat): 27 ^d %

- Papp A→B (P-gp): 7.73 ×10⁻⁶ cm/s
Compound: CCC1CN2CCNCc3ccc(C(=O)NC)c1c32 (single isomer, unassigned; (+)) [(+)-19i]

- Papp A→B (P-gp): 14.8 ×10⁻⁶ cm/s
Compound: CNC(=O)c1ccc2c3c1C(CC(F)(F)F)CN3CCNC2 (single isomer, unassigned; (+)) [(+)-19a]

- Selectivity for 5-HT2CR over 5-HT2AR and 5-HT2BR in binding assays (5-HT2CR): > 500 fold
Compound: CSCCNC(=O)c1ccc2c3c1CCN3CCNC2 [7j, N-(2-(Methylthio)ethyl)-1,2,3,4,6,7-hexahydro-[1,4]diazepino[6,7,1-hi]indole-8-carboxamide]

Reference: PMC12169610 (Journal of Medicinal Chemistry, 2025)
